The source of these data is patent EP0200607A1, “Surfactant chlorhexidine salts and compositions” (PIERRE FABRE COSMETIQUE, priority 1985, dated 1986).

Series [1] has as its system Pseudomonas aeruginosa A 22. The series is described as follows: Antiseptic activity by dilution in liquid medium (MIC and MBC), with anionic surfactants. In kind it is cell-based. As to conditions: Pseudomonas aeruginosa A 22, 10^6 germes/ml. An excerpt: de dilutions en milieu liquide, selon Peterson, Lance R., Denny, Aiken E., Gerding, Dale N. and Hall, Wendell H. :"determination of tolerance to antibiotic bactericidal on activity on Kivby-Baver susceptibility plates Am.J.Clin.Pathol. 74 : 645-650,1980.
Le but de la méthode est de déterminer la plus petite quantité d'un produit X qui exerce sur 10^6 cellules d'une flore bactérienne donnée une activité antiseptique de type bactériostatique ou bactéricide.
La méthode de dilution en milieu liquide permet de déterminer la CMI (concentration minimale inhibitrice-bacté- riostase) et la CMB (concentration minimale léthale-bactéricidie).
• . pipettes de 1 ml graduées au 1/100 en polystyrène cristal stériles, . pipettes Pasteur stériles, • . flacons en verre stériles de 30 ml, 100 ml, • . tubes à essai en verre PYREX stériles 65 x 13 mm, 160 x 16 mm, 25 x 200 mm et 18 x 180 mm, • . boîtes de Pétri, polystyrène cristal- stériles de 90 mm de diamètre, • . lumétron, colorimètre réf.401, • les milieux de culture liquides et gélosés sont adaptés à la croissance de l'espèce de microorganisme en test Pseudomonas aeruginosa. Un témoin de fertilité des milieux liquides et gélosés est réalisé à chaque expérimentation.
Les différents produits testés sont des solutions aqueuses d'alkyl éthoxycarboxylate de chlorhexidine (3%) et contenant un pourcentage variable de tensioactifs anioniques. Les solutions mères sont des dilutions au 1/10e des solutions précédentes.
Pseudomonas aeruginosa est ensemencé en stries sur une pente de gélose Tryptone Soya (CM 131 OXOID). On incube de 18 à 24 Heures à 32-35°C.
Pour le Pseudomonas aeruginosa, une transmission de 90 % représente une valeur de 2-10^8 germes/ml donc une dilution au 1/100e est nécessaire.
On prépare sur un portoir une série de tubes à hémolyse 65 x 13 mm stériles.
Chaque tube reçoit 1 ml de milieu de culture liquide dont la composition est adaptée à la croissance du germe (bouillon BN pour Pseudomonas aéruginosa).
Le tube reçoit 1 ml de la solution mère du produit à analyser. On homogénéise puis effectue des passages successifs au 1/2 jusqu'au dernier tube. Le volume dans tous les tubes est alors de 1 ml.
Toutes les dilutions sont ensemencées avec 1 ml de milieu de culture titrant […] par ml. Dans chaque tube on a alors 1.10^6 germes par ml.
Un tube sans antiseptique permet d'effectuer un dénombrement des microorganismes effectivement introduits dans le test et permet de s'assurer de la vitalité de la souche.
Dénombrement par la méthode de dilution-incorporation et incubation à l'étuve pendant 48 heures à 37°C.
La concentration minimale inhibitrice est la plus petite quantité de produit qui empêche le développement microbien (jugé à l'oeil) ;elle est exprimée en microgramme de chlorhexidine base par millilitre. […]

The nature of the next series: Solubility (qualitative). As to conditions: water.
Series [2] can be described thus: Acute toxicity, oral LD50. Type of series: in vivo. An excerpt:
(§1) La toxicité de ce nouveau sel de CHX a été vérifiée comparativement au tensioactrf sous forme acide de départ, au tensioactif neutralisé par l'ion sodium, à la CHX base et à l'association tensioactif neutralisé par l'ion sodium + CHX base, car il est bien connu que la toxicité d'une molécule peut être potentialisée par la présence d'un tensioactif.
(§2) Deux tests ont été utilisés : • 1- l'évaluation de la DL 50 par voie orale, • 2- l'évaluation de la DL 50 par voie intra-péritonéale.

Series [3] can be described thus: Acute toxicity, intraperitoneal LD50. In kind it is in vivo.
Source text: as §1, §2

Series [4] can be described thus: Foaming power (10 inversions of a stoppered cylinder). Type of series: physicochemical. As to conditions: 50 ml of a 10 % active matter solution, 100 ml cylinder, 23°C. Here is the method:
_Le_pouvoir moussant de l'acide éthoxycarboxylique et de l'éthoxycarboxylate de CHX a été vérifié, et ce comparativement.
A cet effet, on prépare une solution de tensioactif à 10% de matière active. On prélève 50 ml de cette solution que l'on introduit dans une éprouvette de 100 ml (diamètre intérieur 26 mm et hauteur 235 mm). On bouche hermétiquement cette éprouvette et on la soumet à 10 retournements successifs pour provoquer la formation de mousse. Cette manipulation se fait à 23°C (température de la solution).

On the set-up of series [5]: species or system cobaye. As to conditions: in vivo. An excerpt:
On peut penser que cette différence de pouvoir moussant est apportée par le solvant propylèneglycol […] Tolérance : On s'est contenté de vérifier la bonne tolérance cutanée et oculaire du tensioactif acide éthoxycarboxylique et du nouveau sel de CHX de cet exemple, pour bien démontrer la parfaite inocuité de ce nouveau produit.
. tolérance cutanée cobaye :
On voit d'après ces résultats que cette tolérance est meilleure sur ce test pour le nouveau sel de CHX que pour l'acide éthoxycarboxylique. La différence d'épaisseur de pli de peau mesuré le 4ème jour d'application quotidienne est de 0,23 contre 1,2 mm, l'érythème de 1,4 contre 4.

Details of series [6]: species or system lapin. As to conditions: in vivo. From the text: . tolérance cutanée lapin :
The test system of series [7] is Pseudomonas aeruginosa A 22. In words: Antibacterial properties (Tableau I), Pseudomonas aeruginosa. Type of series: cell-based. An excerpt:
(§3) Des expérimentations ont été conduites afin de vérifier si ce nouveau sel de CHX possédait une bonne activité antiseptique comparativement au digluconate de CHX, sel de CHX des plus connus et largement utilisé et ce comparativement à l'acide AEC, ce dernier pouvant avoir par lui-même des propriétés antiseptiques.
(§4) L'activité de ces trois produits a été testée sur quatre germes […] et il a été constaté que non seulement on obtenait une activité voisine de celle du digluconate de CHX, mais que de plus, cette activité était plus importante dans trois cas (voir tableau I).

Another series concerns Staphylo-coque aureus. In words: Antibacterial properties (Tableau I), Staphylococcus aureus. In kind it is cell-based.
Source text: as §3, §4

The test system of series [8] is Escherichia coli ATCC 10536. In words: Antibacterial properties (Tableau I), Escherichia coli. Type of series: cell-based.
Source text: as §3, §4

For series [9] the following is noted: in vivo.
Another series deals with Candida albicans. In words: Antibacterial properties (Tableau I), Candida albicans. In kind it is cell-based.
Source text: as §3, §4

With `N=C(NCCCCCCNC(=N)NC(=N)Nc1ccc(Cl)cc1)NC(=N)Nc1ccc(Cl)cc1` [Digluconate de CHX, Digluconate de chlorhexidine], the MIC in series [1] (A22, aqueous solutions with 3% alkyl éthoxycarboxylate de chlorhexidine, read-out: CMI) amounted to 8.75 µg/mL. The MBC in series [1] (A22, sub-culture on neutralising medium, read-out: CMB) came to 8.75 µg/mL.

`[H]/N=C(\N/C(=N/[H])NCCCCCCNC(=N)NC(=N)Nc1ccc(Cl)cc1)Nc1ccc(Cl)cc1` [chlorhexidine base, 1,6-di-(p-chlorophényl-biguanido) hexane]: the “solubilité dans l'eau” value in “Solubility (qualitative)” is recorded as “insoluble dans l'eau”. For the same compound, the “DL 50 voie orale” value in [2] is “pas de mortalité”. The LD50 in [3] (in vivo, ip, read-out: DL 50 voie intrapérito-néale) lay within 47 to 100 mg/kg.

In the case of Alkyl éthoxycarboxy-late de sodium, the “DL 50 voie orale” value in series [2] was 7,5 g/kg.

Take “Alkyl éthoxycarboxylate de chlorhexidine [AEC de CHX]”: the “Pouvoir moussant (mousse)” value in series [4] is 16 mL. The CMI in series [1] (aqueous solutions with 3% alkyl éthoxycarboxylate de chlorhexidine) is 8 microgramme de chlorhexidine base par millilitre. In addition, the CMB in series [1] (sub-culture on neutralising medium) is on record as 8 microgramme de chlorhexidine base par millilitre. In [5], the “différence d'épaisseur de pli de peau” value was 0,23 mm and the érythème is given as 1,4. Further, in [6], the “indice d'irritation primaire” value is on record as 0,25.

Turning to “alkyl éthoxycarboxylique acide [AEC acide]”, the “Pouvoir moussant (mousse)” value in [4] was found to be 26 mL. The “Propriétés antibactériennes” value in series [7] was 6,2 mg/ml; in the series with Staphylo-coque aureus, 1,56 mg/ml; in [8], 12,5 mg/ml; in the series on Candida albicans, 50 mg/mL. The tolérance oculaire entry in [9] is “la mieux tolérée”. Besides, the “différence d'épaisseur de pli de peau” value in series [5] is 1,2 mm. Moreover, the érythème in series [5] was 4. Further, the “indice d'irritation primaire” value in series [6] is 0,75. In addition, the “DL 50 voie intrapérito-néale” value in [3] is listed as 0,5 g/kg.
